Assay results reported in the NIST ThermoML archive (doi:10.1021/je900570e).

Experiment: xn = mol fraction of the nth substance listed
Conditions: Liquid; for viscosity / speed of sound: 101 kPa; for viscosity: Capillary tube (Ostwald / Ubbelohde) method; for speed of sound: Frequency=2 MHz, Pulse-echo method; for mass density: 101.33 kPa, Vibrating tube method

ClCC(Cl)Cl [1,1,2-trichloroethane] + N#CCc1ccccc1
Conditions	mass density, 303.15 K [kg/m3]	mass density, 308.15 K [kg/m3]	mass density, 313.15 K [kg/m3]	speed of sound, 303.15 K [m/s]	speed of sound, 308.15 K [m/s]	speed of sound, 313.15 K [m/s]	viscosity, 303.15 K [mPa·s]	viscosity, 308.15 K [mPa·s]	viscosity, 313.15 K [mPa·s]
x2 = 0	1425	1416.1	1409.6	1129.2	1115.9	1096.1	1.019	0.9483	0.8888
x2 = 0.0185	1415.6	1407.2	1400.5	1137	1125	1105.9	1.046	0.9728	0.9045
x2 = 0.1212	1364.9	1358.6	1351.2	1176.7	1168.2	1150.9	1.158	1.064	0.9825
x2 = 0.2319	1312.6	1307.3	1300.6	1219.7	1214.2	1199.9	1.264	1.163	1.074
x2 = 0.3463	1261.1	1256.2	1250.2	1263.4	1261.9	1248.1	1.365	1.259	1.169
x2 = 0.445	1218.6	1214	1208.4	1301	1301.5	1288.9	1.454	1.336	1.242
x2 = 0.5545	1173.4	1168.9	1163.6	1342.8	1343.3	1332.8	1.545	1.411	1.307
x2 = 0.6861	1121.7	1117.3	1112.1	1393.4	1392.9	1383.2	1.631	1.491	1.381
x2 = 0.8245	1070.3	1065.7	1060.7	1446.6	1445.1	1431.8	1.706	1.561	1.436
x2 = 0.972	1018.4	1013.7	1009	1505.3	1498.7	1488.9	1.758	1.595	1.477

N#CCc1ccccc1 [benzeneacetonitrile] + ClCCCl
Conditions	mass density, 303.15 K [kg/m3]	mass density, 308.15 K [kg/m3]	mass density, 313.15 K [kg/m3]	speed of sound, 303.15 K [m/s]	speed of sound, 308.15 K [m/s]	speed of sound, 313.15 K [m/s]	viscosity, 303.15 K [mPa·s]	viscosity, 308.15 K [mPa·s]	viscosity, 313.15 K [mPa·s]
x1 = 0.0165	1233.5	1225.3	1218.7	1182.2	1171.9	1161	0.7352	0.6821	0.6456
x1 = 0.1059	1205.5	1198.9	1191.5	1221.2	1211.5	1200.5	0.8165	0.7512	0.708
x1 = 0.2041	1177.1	1171	1163.5	1262.4	1252.3	1243.7	0.9029	0.8313	0.7877
x1 = 0.3088	1149.2	1143.5	1136.1	1304.2	1293.6	1285.3	1.003	0.9258	0.8746
x1 = 0.4073	1124.8	1119.4	1111.8	1339.5	1330.8	1320.8	1.103	1.017	0.9576
x1 = 0.5122	1100.7	1095.6	1087.6	1374.8	1367.5	1355.9	1.213	1.117	1.048
x1 = 0.648	1072	1067.2	1058.8	1418.6	1411.8	1399.9	1.365	1.248	1.165
x1 = 0.8003	1042.8	1038.2	1029.5	1465.2	1458.9	1447.6	1.536	1.398	1.299
x1 = 0.9705	1013.6	1008.8	999.9	1512.6	1505.4	1499.1	1.725	1.568	1.456
x1 = 1	1008.8	1004.1	999.5	1519.2	1512.9	1503.4	1.761	1.602	1.489

N#CCc1ccccc1 [benzeneacetonitrile] + ClC=C(Cl)Cl
Conditions	mass density, 303.15 K [kg/m3]	mass density, 308.15 K [kg/m3]	mass density, 313.15 K [kg/m3]	speed of sound, 303.15 K [m/s]	speed of sound, 308.15 K [m/s]	speed of sound, 313.15 K [m/s]	viscosity, 303.15 K [mPa·s]	viscosity, 308.15 K [mPa·s]	viscosity, 313.15 K [mPa·s]
x1 = 0.0195	1437	1428.5	1420	1024.6	1004.9	992.5	0.5201	0.486	0.4908
x1 = 0.119	1383.8	1377.2	1369.5	1073.5	1057.5	1045.8	0.5905	0.553	0.5292
x1 = 0.2263	1329.5	1323.9	1316.9	1128.2	1114.1	1102.9	0.6901	0.6417	0.6092
x1 = 0.3478	1271.9	1266.3	1260.1	1191	1179.2	1169.9	0.82	0.7558	0.715
x1 = 0.4396	1230.2	1225	1219.2	1238.9	1228.9	1221.9	0.9316	0.8529	0.7976
x1 = 0.5443	1184.5	1179.6	1174.2	1293.3	1284.6	1279.3	1.066	0.9721	0.9137
x1 = 0.6782	1128.8	1124.7	1119.5	1364.1	1356.5	1351	1.248	1.147	1.075
x1 = 0.819	1074.1	1070.3	1064.9	1435.8	1428.4	1425	1.456	1.339	1.248
x1 = 0.9692	1019.7	1015.3	1010.2	1504.1	1502.7	1499.2	1.698	1.546	1.439
x1 = 1	1008.8	1004.1	999.5	1519.2	1512.9	1503.4	1.761	1.602	1.489

N#CCc1ccccc1 [benzeneacetonitrile] + ClC(Cl)C(Cl)Cl
Conditions	mass density, 303.15 K [kg/m3]	mass density, 308.15 K [kg/m3]	mass density, 313.15 K [kg/m3]	speed of sound, 303.15 K [m/s]	speed of sound, 308.15 K [m/s]	speed of sound, 313.15 K [m/s]	viscosity, 303.15 K [mPa·s]	viscosity, 308.15 K [mPa·s]	viscosity, 313.15 K [mPa·s]
x1 = 0.0221	1566.5	1558.5	1551.7	1142	1125	1107.4	1.489	1.376	1.277
x1 = 0.1374	1497.2	1490.1	1483.5	1179.7	1166.3	1154.6	1.661	1.528	1.413
x1 = 0.2564	1426.9	1420	1413.8	1220.9	1209.3	1201.6	1.838	1.678	1.544
x1 = 0.3743	1358.8	1351.7	1345.9	1263.5	1251.5	1245.6	1.954	1.775	1.63
x1 = 0.4799	1297.2	1291.5	1285.9	1303.1	1289.9	1283.9	2.011	1.837	1.674
x1 = 0.5852	1236.4	1231.7	1226.2	1343.4	1329.5	1323.9	2.017	1.832	1.682
x1 = 0.7131	1164.2	1160.2	1154.9	1393.9	1381	1373.2	1.966	1.796	1.645
x1 = 0.8414	1093.9	1089.9	1085	1446.4	1436.5	1426.2	1.894	1.725	1.597
x1 = 0.9748	1022.5	1018.2	1013.5	1504.3	1497.2	1487.4	1.772	1.617	1.503
x1 = 1	1008.8	1004.1	999.5	1519.2	1512.9	1503.4	1.761	1.602	1.489

N#CCc1ccccc1 [benzeneacetonitrile] + ClC(Cl)=C(Cl)Cl
Conditions	mass density, 303.15 K [kg/m3]	mass density, 308.15 K [kg/m3]	mass density, 313.15 K [kg/m3]	speed of sound, 303.15 K [m/s]	speed of sound, 308.15 K [m/s]	speed of sound, 313.15 K [m/s]	viscosity, 303.15 K [mPa·s]	viscosity, 308.15 K [mPa·s]	viscosity, 313.15 K [mPa·s]
x1 = 0.0231	1591.9	1583	1575.7	1037.5	1024.4	1010.5	0.8124	0.7752	0.746
x1 = 0.1322	1520.1	1512.1	1505.3	1082.9	1070.9	1060.1	0.884	0.8382	0.8001
x1 = 0.249	1445.2	1438	1431.6	1133.9	1123.3	1113.4	0.9577	0.9171	0.868
x1 = 0.37	1369.8	1363.1	1357.1	1188.9	1178.8	1168.9	1.06	0.9982	0.9342
x1 = 0.4713	1308.3	1302	1296.2	1236.8	1226.7	1216.8	1.159	1.077	1.003
x1 = 0.5767	1245.7	1239.8	1234.3	1288.5	1278.5	1268.9	1.269	1.172	1.096
x1 = 0.7051	1171.4	1166.1	1160.8	1355	1345	1335.7	1.413	1.294	1.207
x1 = 0.8386	1096.5	1091.6	1086.6	1428	1419.2	1409.3	1.571	1.43	1.329
x1 = 0.972	1023.9	1019.2	1014.5	1504.1	1497.9	1486.1	1.726	1.57	1.458
x1 = 1	1008.8	1004.1	999.5	1519.2	1512.9	1503.4	1.761	1.602	1.489
